Series [1] concerns plasma protein. The following applies: cited from earlier work.
Another series has as its system LNCaP or PC3 xenografts. The arrangement: method as in PMID 19706750, PMID 23733925. The settings on record: cited from earlier work; for TBR (tumor to muscle ratio) / blood concentration: 4 h post-injection; for TBR (tumor to muscle ratio): calculated from published tumor and skeletal muscle uptake.
The next series deals with PSMA. Also on record: method as in PMID 19706750, PMID 23733925. The settings on record: strongest affinity of all PSMA binders tested; cited from earlier work.
In series [2] the test system is plasma protein. As to the kind of experiment: Plasma protein binding by Rapid Equilibrium Dialysis (RED). The class given is in vitro ADME. The settings on record: 12 kDa plate. (In general: In equilibrium dialysis only unbound substance equilibrates across the membrane.)
Text: Plasma protein interactions were quantified for commonly used, commercially available far-red and near-infrared fluorescent dyes. For IRDye 800CW, ZW800, BODIPY 650, Alexa Fluor 680, and integrin conjugates, a Rapid Equilibrium Dialysis (RED) plate (Thermo Scientific) was used following the manufacturer’s protocol.
Rapid Equilibrium Dialysis (RED) was used to quantify plasma protein binding
for various fluorescent dyes (carboxylate form) and fluorescent conjugates.
are available with membrane molecular weight cutoffs of either 8 kDa or 12 kDa.
that many of the fluorescent conjugates are >1 kDa, the 12 kDa plate were used to reduce
The 12 kDa RED plate gave

pKd: −log10 of the molar value. Like-named read-outs stand apart in the source and are kept apart here. Marks after values point to notes of the source that are not given here.

As a reminder, the pKd is the Kd on a negative log10 scale, so that one unit is a factor of ten.

As to `O=C([O-])CN(CCN(CC(=O)[O-])CC(=O)[O-])CCN(CC(=O)[O-])CC(=O)[O-].[99Tc+4]` [99mTc-DTPA], the plasma protein binding with plasma protein [1] is on record as < 5%.
`CC1(C)C(/C=C/C=C/C=C/C=C2\N(CCCCS(=O)(=O)[O-])c3ccc4ccccc4c3C2(C)C)=[N+](CCCCS(=O)(=O)[O-])c2ccc3ccccc3c21.[Na+]` [ICG dye]: the “% Plasma Protein Bound” value with plasma protein [1] (estimates based on a subsaturating concentration of ICG) is given as 99.5–99.975 ^* %.
With `O=C(O)CC[C@H](NC(=O)N[C@@H](CCCCNCc1ccc(I)cc1)C(=O)O)C(=O)O` [MIP1072], in the series with LNCaP or PC3 xenografts, the “TBR (tumor to muscle ratio)” value is given as 171 and the blood concentration is 0.06 %ID/g.
Take `O=C(O)CC[C@H](NC(=O)N[C@@H](CCCCNC(=O)Nc1ccc(I)cc1)C(=O)O)C(=O)O` [MIP1095]: the pKd at PSMA is 9.62. Also, the skeletal muscle uptake in the series on LNCaP or PC3 xenografts (highest of the PSMA set) is 0.26 %ID/g.
With `O=C(O)CC[C@H](NC(=O)N[C@@H](CCC(=O)N[C@@H](CCCCN(Cc1nccn1CC(=O)N(CC(=O)O)CC(=O)O)Cc1nccn1CC(=O)N(CC(=O)O)CC(=O)O)C(=O)O)C(=O)O)C(=O)O` [MIP1404], in the series with LNCaP or PC3 xenografts, the “TBR (tumor to muscle ratio)” value is on record as 157 and the blood concentration is 0.02 %ID/g.
Consider `O=C(O)CC[C@H](NC(=O)N[C@@H](CCC(=O)NC(CCCCN(Cc1nccn1CC(=O)O)Cc1nccn1CC(=O)O)C(=O)O)C(=O)O)C(=O)O` (stereo partly shown) [MIP1427], for which, in the series on LNCaP or PC3 xenografts, the “TBR (tumor to muscle ratio)” value was 31 and the blood concentration was 0.28 %ID/g.
With `CC1(C)C(=CC=CC=CC=CC2=[N+](CCCCS(=O)(=O)[O-])c3ccc(C(=O)NC[C@H](O)[C@@H](O)[C@H](O)C(O)CO)cc3C2(C)C)N(CCCCS(=O)(=O)[O-])c2ccc(C(=O)NCC(O)C(O)C(O)[C@H](O)CO)cc21.[Na+]` (stereo partly shown) [SIDAG dye], the “% Plasma Protein Bound” value in the series with plasma protein [1] (reported bound fraction in the plasma, discussed in SI) is on record as 57 ^* %.
In the case of IRDye 800CW carboxylate, the “% Plasma Protein Bound” value in the series with plasma protein [2] worked out at 89 ± 3%.
On to Inulin, for which, in the series with plasma protein [1] (classic example, no reference given), the plasma protein binding entry was “no measurable plasma protein binding”.

The record behind these values is PMC4857130, “Mechanistic and quantitative insight into cell surface targeted molecular imaging agent design” (Scientific Reports, 2016).
